In patent publication US20070207975A1, “Materials and methods for treating and preventing Her-2/neu overexpressing, FAS-elevated cancer cells” (EVANSTON NORTHWESTERN HEALTHCARE, priority 2006, published 2007):
Like-named read-outs stand apart in the source and are kept apart here.

Key:
[1] = test system: BT-474 cells; test: TUNEL apoptosis assay, BT-474; assay type: cell-based, human
Procedure: FIG. 6. […] The immunofluorescence photomicrographs of cells undergoing apoptosis (green staining) and the corresponding DAPI-counterstained photomicrographs are shown. […] Equal amounts of total protein (50 μg per lane) were subjected to Western blot analyses with a specific antibody against the p85 fragment of PARP, and then re-probed with a β-actin antibody. […] For each pair of columns, the height of the columns on the left represents the sum of the effect of each agent alone and, therefore, the expected apoptotic cell death if their effect was additive when used in combination. The total height of the columns on the right indicates the observed apoptosis when the agents were used in combination. […] A) Cell surface expression of Her-2/neu protein in BT-474 and SK-Br3 cells was determined by flow cytometry using a mouse anti-Her-2/neu antibody directed against the extracellular domain of the p185^Her-2/neu oncoprotein (clone Ab-5; Oncogene Research Products; San Diego, Calif.). […] The mean fluorescence signal associated with cells for labeled p185^Her-2/neu was quantified using the Geo Mean (GM) fluorescence parameter provided with the software. […] Immunoreactive bands were detected by enhanced chemiluminescence reagent (Pierce, Rockford, Ill.). […] Densitometric values of protein bands were quantified using Scion Imaging Software (Scion Corp., Frederick, Md.).

[2] = test system: Wild-type Her-2/neu promoter; test: Luciferase reporter driven by wild-type Her-2/neu promoter, transient transfection; assay type: cell-based, human; details: for Luciferase activity relative to vehicle-treated wild-type promoter cells: GLA 10 μg/mL for 24 hours; for inhibition at 20 µM: Homo sapiens, OA 20 μM, 24 hours, read-out: reduction (inhibition) of Her-2/neu gene promoter activity
Procedure: FIG. 11. Luciferase activity in transiently transfected cells. Luciferase activity was assayed in cells that were transiently transfected with a pGL2-Luc construct containing a luciferase reporter gene under the control of a Her-2/neu promoter fragment containing a wild-type (top panel, left) or mutant (top panel, right) PEA3 binding site as described herein. The magnitude of activation in Her-2/neu promoter-luciferase-transfected cells was determined after normalization of the luciferase activity obtained in cells co-transfected with equivalent amounts of the empty pGL2-Luciferase vector lacking the Her-2/neu promoter (-luciferase) and the internal control plasmid pRL-CMV. This control value was used to calculate the relative change in the transcriptional activities of Her-2/neu-promoter-luciferase-transfected cells in response to treatments after normalization to pRL-CMV. The activity of the wild-type promoter in untreated control cells was defined as 100%. […] One-factor ANOVA was used to analyzed differences in the percentages of luciferase activity between the various treatment groups.
The luciferase activities reported in Table 3 were assayed in cells that were transiently transfected with a pGL2-luciferase (Promega Inc., Madison, Wis.) construct containing a luciferase reporter gene under the control of a Her-2/neu promoter fragment containing a wild-type or mutant PEA3 binding site, as previously described by Xing et al. (36), incorporated herein by reference. […] Luciferase activity from cell extracts was detected with a Luciferase Assay System (Promega Inc.).
To conduct Her-2/neu promoter activity assays, cells were initially transfected using FuGENE 6 transfection reagent (Roche Biochemicals, Indianapolis, Ind.) as directed by the manufacturer. Overnight-serum starved cancer cells seeded into 24-well plates (˜5×10^4 cells/well) were transfected in low-serum (0.1% FBS) media with 1.5 μg/well of the pGL2-luciferase (Promega, Madison, Wis.) construct containing a luciferase reporter gene driven by either an intact (Her-2/neu wild-type PEA3-binding site-luciferase) or by a mutated (Her-2/neu mutated PEA3-binding site-luciferase) Her-2/neu promoter fragment along with […] of the internal control plasmid pRL-CMV, which was used to correct for transfection efficiency. […] Approximately 24 hours after treatments, luciferase activities from cell extracts were detected with a luciferase Assay System following manufacturer's instructions (Promega, Madison, Wis., USA) using a Victor^2™ Multilabel Counter (Perkin-Elmer Life Sciences).

[3] = test system: Lipogenic Cells; test: Effect of fatty acids, lipogenic cells (Table 2); assay type: cell-based
[4] = test system: Her-2/neu protein; test: Immunoblot analysis of Her-2/neu protein; assay type: cell-based, human

CCCCCC=CCC=CCC=CCCCCC(=O)O [GLA, 6,9,12-octadecatrienoic acid]
cells that underwent apoptosis (TUNEL) ([1]; GLA 10 μg/mL, trastuzumab 10 μg/mL, alone or together, 48 hours): 5% (95% confidence interval [CI]=4% to 6%)
Luciferase activity relative to vehicle-treated wild-type promoter cells ([2]; BT-474): 35% (95% CI = 33-37%)
Luciferase activity relative to vehicle-treated wild-type promoter cells ([2]; MDA-MB-231): 80% (95% CI = 75-85%)
Luciferase activity relative to vehicle-treated wild-type promoter cells ([2]; MDA-MB-453): 26% (95% CI = 25-27%)
Luciferase activity relative to vehicle-treated wild-type promoter cells ([2]; NCI-N87): 38% (95% CI = 34-42%)
Luciferase activity relative to vehicle-treated wild-type promoter cells ([2]; SK-Br3): 54% (95% CI = 51-57%)
Luciferase activity relative to vehicle-treated wild-type promoter cells ([2]; SK-OV3): 21% (95% CI = 16-26%)
Effect of Fatty Acids: Lipogenic Cells [3]: No effect
Her-2/neu protein levels ([4]; BT-474 and SK-Br3, GLA 10 μg/mL for 48 hours): substantial reduction
Her-2/neu protein levels ([4]; MDA-MB-231 (low Her-2/neu), GLA exposure): did not affect
Her-2/neu protein levels ([4]; MDA-MB-453, SK-OV3 and NCI-N87, GLA 10 μg/mL for 48 hours): markedly decreased

CCCCCCCCC=CCCCCCCCC(=O)O [OA, 9-octadecenoic acid]
TUNEL-positive cells ([1]; OA 5 μM, trastuzumab 10 μg/ml, alone or simultaneously, 72 hours): 2%
inhibition at 20 µM ([2]; NCI-N87, 24 h, NCI-N87): 55%
inhibition at 20 µM ([2]; SK-BR-3, 24 h, SK-Br3): ≤ 56%
inhibition at 20 µM ([2]; SK-OV-3, 24 h, SK-OV3): ≤ 75%
reduction of Her-2/neu gene promoter activity ([2]; MCF-7/Her2-18 transfectants, OA supplementation): up to 22%
reduction of wild-type Her-2/neu promoter luciferase reporter activity ([2]; MCF-7/neo cells, OA treatment): up to 12%
reduction of Her-2/neu promoter activity ([2]; MCF-7 breast cancer cells (physiological Her-2/neu levels), OA): < 20%
Effect of Fatty Acids: Lipogenic Cells [3]: No effect
Her-2/neu protein levels ([4]; MCF-7/Her2-18 transfectants (SV40 promoter), OA treatment): failed to decrease
Her-2/neu protein levels ([4]; MCF-7/neo cells, OA supplementation): not significantly affected
Her-2/neu protein expression ([4]; SK-Br3, SK-OV3 and NCI-N87, OA 20 μM, 48 hours): down-regulation
